Laboratory results: PubChem BioAssay (NCI)
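Briefly, cells in 96-well plates were exposed to five compound concentrations for 48 h, and endpoints were estimated by linear interpolation. GI50 marks 50% less growth. TGI: total growth inhibition.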

Columns and labels:
Test in all cases: DTP human tumour cell line panel, 48 h
SK-MEL-28 melanoma = tested on: SK-MEL-28 melanoma
UO-31 renal = tested on: UO-31 renal
HOP-92 NSCLC = tested on: HOP-92 NSCLC
NCI-H226 lung = tested on: NCI-H226 lung
UACC-257 melanoma = tested on: UACC-257 melanoma
SNB-75 CNS = tested on: SNB-75 CNS
SW-620 colon = tested on: SW-620 colon
SK-MEL-2 melanoma = tested on: SK-MEL-2 melanoma
HS 578T breast = tested on: HS 578T breast
SF-295 CNS = tested on: SF-295 CNS
NCI-H522 lung = tested on: NCI-H522 lung
SF-268 CNS = tested on: SF-268 CNS
HOP-62 NSCLC = tested on: HOP-62 NSCLC
OVCAR-5 ovarian = tested on: OVCAR-5 ovarian
MALME-3M melanoma = tested on: MALME-3M melanoma
SNB-19 CNS = tested on: SNB-19 CNS
NCI-H460 lung = tested on: NCI-H460 lung
MCF7 breast = tested on: MCF7 breast
A549 NSCLC = tested on: A549 NSCLC
TK-10 renal = tested on: TK-10 renal
RPMI-8226 leukemia = tested on: RPMI-8226 leukemia
OVCAR-4 ovarian = tested on: OVCAR-4 ovarian
MDA-MB-435 = tested on: MDA-MB-435
MDA-MB-231 breast = tested on: MDA-MB-231 breast
HT29 colon = tested on: HT29 colon
T-47D breast = tested on: T-47D breast
A498 renal = tested on: A498 renal
SR leukemia = tested on: SR leukemia
UACC-62 melanoma = tested on: UACC-62 melanoma
SN12C renal = tested on: SN12C renal
HL-60(TB) leukemia = tested on: HL-60(TB) leukemia
LOX IMVI melanoma = tested on: LOX IMVI melanoma
DU-145 prostate = tested on: DU-145 prostate
IGROV1 ovarian = tested on: IGROV1 ovarian
RXF 393 renal = tested on: RXF 393 renal
SK-OV-3 ovarian = tested on: SK-OV-3 ovarian
HCT-116 colon = tested on: HCT-116 colon
OVCAR-8 ovarian = tested on: OVCAR-8 ovarian
BT-549 breast = tested on: BT-549 breast
ACHN renal = tested on: ACHN renal
U251 CNS = tested on: U251 CNS
HCC-2998 colon = tested on: HCC-2998 colon
COLO 205 colon = tested on: COLO 205 colon
PC-3 prostate = tested on: PC-3 prostate
CAKI-1 renal = tested on: CAKI-1 renal
SF-539 CNS = tested on: SF-539 CNS
OVCAR-3 ovarian = tested on: OVCAR-3 ovarian
786-0 renal = tested on: 786-0 renal
M14 melanoma = tested on: M14 melanoma
SK-MEL-5 melanoma = tested on: SK-MEL-5 melanoma
EKVX NSCLC = tested on: EKVX NSCLC
KM12 colon = tested on: KM12 colon
NCI/ADR-RES ovarian = tested on: NCI/ADR-RES ovarian
MOLT-4 leukemia = tested on: MOLT-4 leukemia
K-562 leukemia = tested on: K-562 leukemia
HCT-15 colon = tested on: HCT-15 colon

SMILES: N/C(=N\c1nc2c(Br)cccc2s1)C(Br)Br
- GI50 (SK-MEL-28 melanoma): 11.1 µM
- TGI (SK-MEL-28 melanoma): 23.3 µM
- GI50 (UO-31 renal): 5.69 µM
- TGI (UO-31 renal): 20.2 µM
- GI50 (HOP-92 NSCLC): 6.07 µM
- TGI (HOP-92 NSCLC): 29.4 µM
- GI50 (NCI-H226 lung): 11.3 µM
- TGI (NCI-H226 lung): 38.6 µM
- GI50 (UACC-257 melanoma): 13.5 µM
- TGI (UACC-257 melanoma): 28 µM
- GI50 (SNB-75 CNS): 10.2 µM
- TGI (SNB-75 CNS): 22.1 µM
- GI50 (SW-620 colon): 2.26 µM
- TGI (SW-620 colon): 11.2 µM
- GI50 (SK-MEL-2 melanoma): 15.4 µM
- TGI (SK-MEL-2 melanoma): 34.7 µM
- GI50 (HS 578T breast): 7.24 µM
- TGI (HS 578T breast): > 100 µM
- GI50 (SF-295 CNS): 10.6 µM
- TGI (SF-295 CNS): 25.9 µM
- GI50 (NCI-H522 lung): 6.16 µM
- TGI (NCI-H522 lung): 21.7 µM
- GI50 (SF-268 CNS): 4.67 µM
- TGI (SF-268 CNS): 26.9 µM
- GI50 (HOP-62 NSCLC): 10.5 µM
- TGI (HOP-62 NSCLC): 27.8 µM
- GI50 (OVCAR-5 ovarian): 12 µM
- TGI (OVCAR-5 ovarian): 25.8 µM
- GI50 (MALME-3M melanoma): 8.53 µM
- TGI (MALME-3M melanoma): 24.4 µM
- GI50 (SNB-19 CNS): 10.4 µM
- TGI (SNB-19 CNS): 27.8 µM
- GI50 (NCI-H460 lung): 2.55 µM
- TGI (NCI-H460 lung): 11.5 µM
- GI50 (MCF7 breast): 2.25 µM
- TGI (MCF7 breast): 11.3 µM
- GI50 (A549 NSCLC): 7.76 µM
- TGI (A549 NSCLC): 21.9 µM
- GI50 (TK-10 renal): 15.9 µM
- TGI (TK-10 renal): 32.2 µM
- GI50 (RPMI-8226 leukemia): 2.97 µM
- TGI (RPMI-8226 leukemia): 16.4 µM
- GI50 (OVCAR-4 ovarian): 6.21 µM
- TGI (OVCAR-4 ovarian): 30.6 µM
- GI50 (MDA-MB-435): 3.22 µM
- TGI (MDA-MB-435): 13.7 µM
- GI50 (MDA-MB-231 breast): 5.51 µM
- TGI (MDA-MB-231 breast): 28 µM
- GI50 (HT29 colon): 2.91 µM
- TGI (HT29 colon): 12.8 µM
- GI50 (T-47D breast): 10.3 µM
- TGI (T-47D breast): 36.1 µM
- GI50 (A498 renal): 21.5 µM
- TGI (A498 renal): 50.6 µM
- GI50 (SR leukemia): 4.68 µM
- TGI (SR leukemia): 31 µM
- GI50 (UACC-62 melanoma): 6.63 µM
- TGI (UACC-62 melanoma): 24.3 µM
- GI50 (SN12C renal): 11.7 µM
- TGI (SN12C renal): 29.8 µM
- GI50 (HL-60(TB) leukemia): 7.38 µM
- TGI (HL-60(TB) leukemia): 57.5 µM
- GI50 (LOX IMVI melanoma): 0.307 µM
- TGI (LOX IMVI melanoma): 1.29 µM
- GI50 (DU-145 prostate): 3.84 µM
- TGI (DU-145 prostate): 16 µM
- GI50 (IGROV1 ovarian): 10.4 µM
- TGI (IGROV1 ovarian): 31.6 µM
- GI50 (RXF 393 renal): 2.74 µM
- TGI (RXF 393 renal): 9.95 µM
- GI50 (SK-OV-3 ovarian): 10.8 µM
- TGI (SK-OV-3 ovarian): 35.4 µM
- GI50 (HCT-116 colon): 2.27 µM
- TGI (HCT-116 colon): 16.8 µM
- GI50 (OVCAR-8 ovarian): 8.18 µM
- TGI (OVCAR-8 ovarian): 24.1 µM
- GI50 (BT-549 breast): 11.2 µM
- TGI (BT-549 breast): 29.9 µM
- GI50 (ACHN renal): 2.98 µM
- TGI (ACHN renal): 11.8 µM
- GI50 (U251 CNS): 2.83 µM
- TGI (U251 CNS): 12.1 µM
- GI50 (HCC-2998 colon): 3.62 µM
- TGI (HCC-2998 colon): 14.3 µM
- GI50 (COLO 205 colon): 3.49 µM
- TGI (COLO 205 colon): 13.9 µM
- GI50 (PC-3 prostate): 8.68 µM
- TGI (PC-3 prostate): 26.1 µM
- GI50 (CAKI-1 renal): 2.1 µM
- TGI (CAKI-1 renal): 8.98 µM
- GI50 (SF-539 CNS): 3.7 µM
- TGI (SF-539 CNS): 15 µM
- GI50 (OVCAR-3 ovarian): 4.19 µM
- TGI (OVCAR-3 ovarian): 16.6 µM
- GI50 (786-0 renal): 13.1 µM
- TGI (786-0 renal): 35.2 µM
- GI50 (M14 melanoma): 10.4 µM
- TGI (M14 melanoma): 28.1 µM
- GI50 (SK-MEL-5 melanoma): 17.5 µM
- TGI (SK-MEL-5 melanoma): 32 µM
- GI50 (EKVX NSCLC): 11.4 µM
- TGI (EKVX NSCLC): 28 µM
- GI50 (KM12 colon): 4.29 µM
- TGI (KM12 colon): 22.4 µM
- GI50 (NCI/ADR-RES ovarian): 2.58 µM
- TGI (NCI/ADR-RES ovarian): 9.81 µM
- GI50 (MOLT-4 leukemia): 3.9 µM
- TGI (MOLT-4 leukemia): 27.3 µM
- GI50 (K-562 leukemia): 2.66 µM
- TGI (K-562 leukemia): 52.7 µM
- GI50 (HCT-15 colon): 2.57 µM
- TGI (HCT-15 colon): 11.5 µM
